Reference: patent publication EP0056144A1, “Carboxylic acid derivatives, their preparation and use as pharmaceuticals” (Dr. Karl Thomae GmbH, priority 1981, dated 1982)

Tests used:
weiblichen Ratten = assay: Blood-sugar-lowering effect in fasted female rats (glucose by hexokinase method); assay type: in vivo; set-up: key: n.s.: statistisch nicht signifikant; settings: rats fasted 24 h
Text: Die blutzuckersenkende Wirkung der zu untersuchenden Substanzen wurde an weiblichen Ratten eigener Zucht mit dem Gewicht von 180-220 g geprüft, welche 24 Stunden vor Versuchsbeginn nüchtern gesetzt wurden. Die zu untersuchenden Substanzen wurden unmittelbar vor Versuchsbeginn in 1,5%- iger Methylcellulose suspendiert und per Schlundsonde appliziert.
Die Blutentnahme erfolgte unmittelbar vor Substanzapplikation, sowie 1, 2, 3 und 4 Stunden danach jeweils aus dem retroorbitalen Venenplexus. Hiervon wurden jeweils 50 Fl mit 0,5 ml 0,33 N Perchlorsäure enteiweißt und zentrifugiert. Im überstand wurde Glukose nach der Hexokinase-Methode mit Hilfe eines Analysenphotometers bestimmt. Die statistische Auswertung erfolgte nach dem t-Test nach Student mit p = 0,05 als Signifikanzgrenze.
Die nachfolgende Tabelle enthält die gefundenen Werte in Prozent gegenüber Kontrolle: […]

[1] = system: weiblichen und männlichen Mäusen; assay: Acute toxicity in mice after a single oral dose; assay type: in vivo; settings: observation at least 7 days; for Tieren gestorben: single oral dose of 1 000 mg/kg; for orientierende Toxizität: single oral dose
Text: Bei weiblichen und männlichen Mäusen eigener Zucht mit dem Gewicht von 20-26 g wurde die toxische Wirkung der Substanzen nach oraler Gabe (Suspension in 1%iger Methylcellulose) einer einmaligen Dosis bei einer Nachbeobachtungszeit von mindestens 7 Tagen geprüft. Die nachfolgende Tabelle enthält die gefundenen Werte: […]

[2] = 5 mg/kg by gavage, 1 hour after administration
[3] = 5 mg/kg by gavage, 2 hours after administration
[4] = 5 mg/kg by gavage, 3 hours after administration
[5] = 5 mg/kg by gavage, 4 hours after administration

SMILES | Blutzuckersenkende Wirkung, Werte in Prozent gegenüber Kontrolle (weiblichen Ratten; [2]) [Prozent] | Blutzuckersenkende Wirkung, Werte in Prozent gegenüber Kontrolle (weiblichen Ratten; [3]) [Prozent] | Blutzuckersenkende Wirkung, Werte in Prozent gegenüber Kontrolle (weiblichen Ratten; [4]) [Prozent] | Blutzuckersenkende Wirkung, Werte in Prozent gegenüber Kontrolle (weiblichen Ratten; [5]) [Prozent] | Tieren gestorben [1] [von 10] | orientierende Toxizität [1] | Blutzuckersenkende Wirkung, Werte in Prozent gegenüber Kontrolle (weiblichen Ratten; 25 mg/kg by gavage, 1 hour after administration) | Blutzuckersenkende Wirkung, Werte in Prozent gegenüber Kontrolle (weiblichen Ratten; 25 mg/kg by gavage, 2 hours after administration) | Blutzuckersenkende Wirkung, Werte in Prozent gegenüber Kontrolle (weiblichen Ratten; 25 mg/kg by gavage, 3 hours after administration) | Blutzuckersenkende Wirkung, Werte in Prozent gegenüber Kontrolle (weiblichen Ratten; 25 mg/kg by gavage, 4 hours after administration)
O=C(O)c1ccc(CCNC(=O)c2cc(Cl)ccc2N2CCC3CCCC2C3)cc1 (stereo not drawn) [Substanz A, 4-[2-[2-(2-Azabicyclo[3.3.1]nonan-2-yl)-5-chlor-benzoyl-amino]-äthyl]benzoesäure] | -42 | -43 | -36 | -32 |  |  |  |  |  | 
O=C(O)c1ccc(CCNC(=O)c2cc(F)ccc2N2CCCCCCCC2)cc1 [Substanz B, 4-[2-[5-Fluor-2-(octahydro-1H-azonino)-benzoylamino]äthyl]-benzoesäure] | -31 | -36 | -34 | -34 |  |  |  |  |  | 
C[C@@H]1C[C@H](C)CN(c2ncc(Cl)cc2C(=O)NCCc2ccc(C(=O)O)cc2)C1 [Substanz C] | -37 | -39 | -40 | -38 | 0 | > 1 000 mg/kg |  |  |  | 
Cc1ccc(N2CCCCCCCC2)c(C(=O)NCCc2ccc(C(=O)O)cc2)c1 [Substanz D, 4-[2-[5-Methyl-2-(octahydro-1H-azonino)-benzoylamino]-äthyl]-benzoesäure] | -30 | -34 | -35 | -26 |  |  |  |  |  | 
CCNc1ccc(Cl)cc1C(=O)NCCc1ccc(C(=O)O)cc1 [Substanz E, 4-[2-(2-Äthylamino-5-chlor-benzoylamino)-äthyl]benzoesäure, reference compound] |  |  |  |  |  |  | n.s. | n.s. | n.s. | n.s.
CCC(CC)C1CCN(c2ccc(Cl)cc2C(=O)O)CC1 [Substanz F, 5-Chlor-2-[4-(3-pentyl)-piperidino]benzoesäure] |  |  |  |  | 0 | > 1 000 mg/kg |  |  |  | 
